Entries after “also recorded” stand apart in the source; their conditions may differ.
Assays:
PC12 cells = experiment: Differentiation of PC12 cells to neuron like cells, with glutamate; format: cell-based, rat; conditions: 5 days
Protocol: (§1) Cell cultures of various human glial type cell lines (T98G, U87MG, A172, U118MG), as well as human neuronal type cell lines SH-SY 5Y and Be(2)-C were used to test the new compounds. In addition, the rat glioma cell line C6 was used. PC12 cells originating from rats were used as another cell line displaying neuronal characteristics. The applicants also have produced, by genetic manipulation, a modified rat C6 glial cell strain and a modified human U118MG glial type cell strain, both under-expressing the TSPO, which allows to study TSPO specific effects, including of the compounds of the invention, which can be done according to methods described previously (Weisinger et al. Biochemistry. 2004; 43:12315-21; Levin et al. 2005; Zeno et al., 2009).
Briefly, PC-12 cells were exposed to Cpd 1, in combination with glutamate, basically as described for the cell cultures of Example 1, and remained under that condition for 5 days.

U118MG cells = experiment: Protection against cell death induced by glutamate in U118MG cell culture; format: cell-based, human
Protocol: as §1
The protective capabilities of the compounds of the invention and involvement of the TSPO were tested in cell culture, using cell lines of glial and neuronal type, cultured and testing according to standard methods (Kugler et al. 2008; Zeno et al. 2009; Dadon-Nachum et al. Stem Cell Rev. 2011; 7:664-71). Furthermore, primary cell cultures are also used (Banker, G. et al. Culturing Nerve Cells, 2nd Edition, The MIT Press (1998). Treatments included: (1) exposure to glutamate (35 mM), Abeta(1-42), NH4Cl, CoCl2, and nitric oxide (NO) donors, in order to mimic particular aspects of neurodegeneration; (2) treatment with the novel compounds and with traditional TSPO ligands as comparative treatment; and (3) TSPO knockdown by genetic manipulation.
Techniques and parameters assayed are summarized here: Total protein levels (Bradford. Anal Biochem. 1976; 72:248-54); TSPO ligand binding assays (Kugler et al. 2008; Levin et al. 2005; Danovich et al. Eur Neuropsychopharmacol. 2008; 18:24-33) cell death, including apoptosis and necrosis and related molecular biological processes (Soustiel et al. Neuropathol Appl Neurobiol. 2008; 34:412-23; Soustiel et al. Exp Neurol. 2008; 214:201-8; Zeno et al. 2009); mitochondrial transmembrane potential collapse (Chelli et al. Biochem Pharmacol. 2004; 68:125-34; Kugler et al. 2008; Zeno et al., 2009; Shargorodsky et al. Apoptosis. 2012; 17:647-65), reactive oxygen species (ROS) generation as a measure of oxidative stress (Veenman et al. 2008; Zeno et al. 2009); TSPO knockdown (Levin et al. 2005; Zeno et al. 2009); expression levels of mitochondrial TSPO and associated proteins (Veenman et al. 2002; Levin et al. 2005; Veenman et al. 2008); gene expression with RT-PCR and microarray analysis (Bode et al. 2012; Veenman et al. 2012). Parameters of inflammation, immune response, migration, and the cell cycle are also tested. All these approaches can also be applied for quality control of the compounds.
The compounds of the invention protect against cell death induced by glutamate in cell culture of U118MG cells of astrocytic origin (FIGS. 1, 2, 3 and 8) or SH SY 6Y cells of neuronal origin (FIG. 4). […] In the control group, 35 mM of glutamate killed ˜60% of the cells.
The experimental setup is explained using FIG. 8B as an example: • 1. Control: Cell death levels are taken as 0% • 2. Glu: Cell death levels induced by glutamate are over 50% • 3. […] Glu+Cpd 5: When Cpd 5 is given as a treatment to counteract cell death induced by glutamate, increasing concentrations of Cpd 5 reduce cell death levels from over 50% to less than 5%.

[1] = Pharmacokinetic properties in the mouse after i.p. administration; format: in vivo
R6-2 mice = format: in vivo; conditions: chronic s.c. treatment
Source text: R6-2 is a transgenic mouse model for Huntington Disease. Huntington Disease in humans is a hereditary neurodegenerative disease affecting motor performance and finally leading to death of the patients having the disease. R6-2 mice (˜120 CAG repeats B6CBA-Tg(HDexon1)62 Gpb/3J) mice were used for the experiments described below. For this purpose, mice obtained from the Jackson Laboratory (ME) were bred. In particular: males genotype: Hemizygous for Tg(HDexon1)62 Gpb, and females from the wildtype background strain B6CBAF1/J were bred according to the protocol of Jackson Laboratory. The male heterozygote offspring (R6-2 mice) were used for determining life span and motor activity, with and without drug treatment. Drug treatment consisted of daily (5 continuous days a week) subcutaneous injections of mice with 20 μl of: saline (sham control), vehicle DMSO (vehicle control), classic TSPO ligand PK 11195 (15 mg/kg), prior art Compound A (15 mg/kg), Compound 1 (15 mg/kg), and compound 1 (7.5 mg/kg). Drug treatment started on week 5 after birth. Quantities were used according to previous studies regarding TSPO ligands. […]
FIG. 6. […] In particular, from week 9, when the first mice death occurred, until week 16, when all mice were dead, average distance covered in an open field, per session, per experimental group, per week was measured in cm. […]

SMILES: CCN(C)C(=O)Oc1nc(-c2ccccc2)nc2ccccc12 [Compound 1, 2-phenylquinazolin-4-yl ethyl(methyl)carbamate]
- differentiation of PC12 cells toward neuronal type cells (PC12 cells): able to transform PC-12 cells in cell culture to neuron like cells; also recorded: can induce differentiation
- protection against cell death induced by glutamate (U118MG cells; U118MG cells, 35 mM glutamate, compound 1-100 μM): significantly protects; also recorded: protect better and more consistently; also recorded: significantly reduces glutamate-induced cell death levels
- Protection against glutamate-induced cell death (U118MG cells; cell culture, grade in words): Excellent
- lethal effect of compound by itself (U118MG cells; compound alone, no glutamate): only very little lethal effect by itself
- distribution to the brain [1]: quite quickly distributed to the brain
- Kp ([1]; brain, ip, read-out: Uptake ratio to the brain): 0.2
- half-life ([1]; in vivo, ip): 210 min
- adverse effects (R6-2 mice): No adverse effects

Reference: patent publication US10035780B2, “Quinazoline scaffold based compounds, pharmaceutical compositions and methods of use thereof” (TECHNION RESEARCH & DEVELOPMENT FOUNDATION LTD., priority 2014, dated 2018)
